Read-outs that look alike come from different tables or passages of the source.

Experimental findings from patent US20230322767A1, “ARYL SUBSTITUTED PYRROLO-PYRIDINONES AND THERAPEUTIC USES THEREOF” (Bayer Aktiengesellschaft, priority 2020, published 2023) are described below.

Common to all, as to assay type: biochemical
One assay addresses CSNK1A1 (Homo sapiens (Human), UniProt P48729). Nature of the assay: CSNK1A1 Assay 2 (ADP-Glo, 1 μM ATP). The conditions noted are these: median, read-out: CSNK1A1 Assay 2 IC50 [mol/l] (median). In short, it runs like this: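 ADP-Glo luminescence, taken as ADP formed, reports activity against biotinylated phospho-peptide substrate biotin-Ahx-KRRRAL-pS-VASLPGL at 1 μM ATP.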
The next assay addresses CSNK1D (Homo sapiens (Human), UniProt P48730). Put plainly: CSNK1D Assay (ADP-Glo, 1 μM ATP). The conditions noted are these: median, read-out: CSNK1D IC50 [mol/l] (median). In a few lines: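 Enzyme preincubated with compound 15 min at 22° C in 50 mM HEPES pH 7.5 buffer with 10 mM MgCl2, 1 mM DTT; kinase reaction run at 1 μM ATP with biotinylated peptide substrate. ADP formed was detected by ADP-Glo luminescence as the measure of activity.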

Assay [1] addresses wild-type Epidermal Growth Factor Receptor (EGFR) (Homo sapiens (Human), UniProt P00533). Put plainly: WT-EGFR Kinase Assay (TR-FRET, 2 mM ATP). In short, it runs like this:
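TR-FRET read-out of biotinylated peptide phosphorylation, taken as the 665/622 nm ratio after EDTA stop and 1 h detection at 22° C. Kinase: GST fusion of human EGFR aa R669–A1210, given a 15 min compound pre-binding step; reaction run at 2 mM ATP.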

Setting [2] is: read-out: EGFR Wildtyp 2 mM ATP IC50 [mol/l] (median), median or individual measurements.
Where [3] appears, read: EGFR Wildtyp 2 mM ATP IC50 [mol/l] (median), median or individual measurements.

Chain of CSNK1D (P48730 whole entry): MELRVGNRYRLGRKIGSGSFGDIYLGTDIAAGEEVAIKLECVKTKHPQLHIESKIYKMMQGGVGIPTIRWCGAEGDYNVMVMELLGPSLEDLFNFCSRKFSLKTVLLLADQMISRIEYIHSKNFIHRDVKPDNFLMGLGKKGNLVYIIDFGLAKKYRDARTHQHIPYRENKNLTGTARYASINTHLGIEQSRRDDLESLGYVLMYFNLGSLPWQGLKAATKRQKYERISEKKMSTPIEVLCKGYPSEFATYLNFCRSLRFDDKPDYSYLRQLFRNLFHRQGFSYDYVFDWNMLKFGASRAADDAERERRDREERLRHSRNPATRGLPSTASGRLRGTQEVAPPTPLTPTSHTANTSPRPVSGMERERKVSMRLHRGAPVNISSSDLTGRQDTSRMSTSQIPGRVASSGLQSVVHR
Chain of wild-type Epidermal Growth Factor Receptor (EGFR) (P00533 669-1210): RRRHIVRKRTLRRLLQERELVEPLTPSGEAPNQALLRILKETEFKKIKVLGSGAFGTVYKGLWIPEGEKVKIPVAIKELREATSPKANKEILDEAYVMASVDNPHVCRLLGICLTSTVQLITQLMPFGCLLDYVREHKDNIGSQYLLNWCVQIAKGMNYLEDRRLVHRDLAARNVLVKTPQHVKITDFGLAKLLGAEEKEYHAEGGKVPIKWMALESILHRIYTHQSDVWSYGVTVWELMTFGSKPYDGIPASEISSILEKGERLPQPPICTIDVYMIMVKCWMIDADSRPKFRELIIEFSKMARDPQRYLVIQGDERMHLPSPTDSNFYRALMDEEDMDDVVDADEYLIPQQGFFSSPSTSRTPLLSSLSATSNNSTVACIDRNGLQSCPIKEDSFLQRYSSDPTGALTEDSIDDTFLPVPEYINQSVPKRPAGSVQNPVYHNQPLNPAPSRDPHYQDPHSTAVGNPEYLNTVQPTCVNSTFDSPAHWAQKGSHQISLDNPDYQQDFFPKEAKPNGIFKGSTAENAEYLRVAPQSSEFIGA
Chain of CSNK1A1 (P48729 whole entry): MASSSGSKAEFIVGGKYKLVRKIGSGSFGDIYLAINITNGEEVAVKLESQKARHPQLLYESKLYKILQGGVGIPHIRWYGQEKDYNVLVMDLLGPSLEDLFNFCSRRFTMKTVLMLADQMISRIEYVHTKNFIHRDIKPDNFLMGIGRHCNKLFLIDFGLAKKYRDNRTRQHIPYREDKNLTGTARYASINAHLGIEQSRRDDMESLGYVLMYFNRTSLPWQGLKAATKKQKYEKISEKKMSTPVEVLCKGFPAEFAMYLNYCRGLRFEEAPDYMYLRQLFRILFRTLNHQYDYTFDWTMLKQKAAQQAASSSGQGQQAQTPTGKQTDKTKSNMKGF

Consider `CN1CCc2[nH]c(-c3ccnc(NC(=O)Cc4ccc(F)cc4)c3)c(-c3ccccc3)c2C1=O` [Example 1, 2-(4-fluorophenyl)-N-[4-(5-methyl-4-oxo-3-phenyl-4,5,6,7-tetrahydro-1H-pyrrolo[3,2-c]pyridin-2-yl)pyridin-2-yl]acetamide], for which the IC50 is 1.3 nM at CSNK1A1, 3.7 nM on CSNK1D and > 20000 nM in assay [1] (setting [2]).

For the compound `Cn1cc(CC2CC2)c2[nH]c(-c3ccnc(NC(=O)C(CC(F)F)c4ccc(F)cc4)c3)c(-c3ccc(F)cc3)c2c1=O` (racemic) [Example 65, N-{4-[7-(cyclopropylmethyl)-3-(4-fluorophenyl)-5-methyl-4-oxo-4,5-dihydro-1H-pyrrolo[3,2-c]pyridin-2-yl]pyridin-2-yl}-4,4-difluoro-2-(4-fluorophenyl)butanamide], the IC50 on CSNK1A1 is 11 nM; at CSNK1D, 6.6 nM; in assay [1] (setting [3]) it was > 20000 nM.

On to `Cc1ncc(-c2c(-c3ccnc(NC(=O)C(CC(F)F)c4ccc(F)cc4)c3)[nH]c3c2C(=O)N(C)CC3)s1` (racemic) [Example 129, 4,4-difluoro-2-(4-fluorophenyl)-N-{4-[5-methyl-3-(2-methyl-1,3-thiazol-5-yl)-4-oxo-4,5,6,7-tetrahydro-1H-pyrrolo[3,2-c]pyridin-2-yl]pyridin-2-yl}butanamide], for which the IC50 on CSNK1A1 is 15 nM; at CSNK1D it was 13 nM; in assay [1] (setting [3]), > 20000 nM.

`COCCN(C)C(=O)c1ccc(CC(=O)Nc2cc(-c3[nH]c4c(c3-c3ccc(F)cc3)C(=O)N(C)CC4)ccn2)cc1` [Example 141, 4-[2-({4-[3-(4-fluorophenyl)-5-methyl-4-oxo-4,5,6,7-tetrahydro-1H-pyrrolo[3,2-c]pyridin-2-yl]pyridin-2-yl}amino)-2-oxoethyl]-N-(2-methoxyethyl)-N-methylbenzamide]: the IC50 on CSNK1A1 was 3.6 nM; on CSNK1D it was 2.7 nM; in assay [1] (setting [2]), > 20000 nM.

Consider `CC(C(=O)Nc1cc(-c2[nH]c3c(c2-c2ccc(F)cc2F)C(=O)N(C)CC3)ccn1)c1ccc(F)cc1` (single isomer, unassigned) [Example 71, N-{4-[3-(2,4-difluorophenyl)-5-methyl-4-oxo-4,5,6,7-tetrahydro-1H-pyrrolo[3,2-c]pyridin-2-yl]pyridin-2-yl}-2-(4-fluorophenyl)propanamide], for which the IC50 was 1.7 nM at CSNK1A1, 2.1 nM at CSNK1D and > 20000 nM in assay [1] (setting [2]).

`CC(C(=O)Nc1cc(-c2[nH]c3ccn(C)c(=O)c3c2-c2cccnc2F)ccn1)c1ccc(F)cc1` (racemic) [Example 110, 2-(4-fluorophenyl)-N-{4-[3-(2-fluoropyridin-3-yl)-5-methyl-4-oxo-4,5-dihydro-1H-pyrrolo[3,2-c]pyridin-2-yl]pyridin-2-yl}propanamide]: the IC50 at CSNK1A1 is 30 nM; at CSNK1D, 21 nM; in assay [1] (setting [3]) it was > 20000 nM.

Turning to `CC(C(=O)Nc1cc(-c2[nH]c3c(c2-c2ccc(F)cc2F)C(=O)N(C)CC3)ccn1)c1ccc(F)cc1` (racemic) [Example 69, N-{4-[3-(2,4-difluorophenyl)-5-methyl-4-oxo-4,5,6,7-tetrahydro-1H-pyrrolo[3,2-c]pyridin-2-yl]pyridin-2-yl}-2-(4-fluorophenyl)propanamide], the results for the IC50 (at CSNK1A1; on CSNK1D; in assay [1] (setting [3])) were 3.1 nM, 2.8 nM and > 20000 nM, respectively.

Take `CC(C(=O)Nc1cc(-c2[nH]c3ccn(C)c(=O)c3c2-c2ccccc2O)ccn1)c1ccc(F)cc1` (racemic) [Example 124, 2-(4-fluorophenyl)-N-{4-[3-(2-hydroxyphenyl)-5-methyl-4-oxo-4,5-dihydro-1H-pyrrolo[3,2-c]pyridin-2-yl]pyridin-2-yl}propanamide]: the IC50 at CSNK1A1 was 5.6 nM; at CSNK1D, 11 nM; in assay [1] (setting [3]), > 20000 nM.

Regarding `CC(C(=O)Nc1cc(-c2[nH]c3ccn(C)c(=O)c3c2-c2ccc(F)nc2)ccn1)c1ccc(F)cc1` (racemic) [Example 145, 2-(4-fluorophenyl)-N-{4-[3-(6-fluoropyridin-3-yl)-5-methyl-4-oxo-4,5-dihydro-1H-pyrrolo[3,2-c]pyridin-2-yl]pyridin-2-yl}propanamide], the IC50 at CSNK1A1 was 9.7 nM; at CSNK1D, 10 nM; in assay [1] (setting [3]), > 20000 nM.

For `Cn1cc(CC(F)F)c2[nH]c(-c3ccnc(NC(=O)C(CC(F)F)c4ccc(F)cc4)c3)c(-c3ccccc3)c2c1=O` (racemic) [Example 147, (rac)-N-{4-[7-(2,2-difluoroethyl)-5-methyl-4-oxo-3-phenyl-4,5-dihydro-1H-pyrrolo[3,2-c]pyridin-2-yl]pyridin-2-yl}-4,4-difluoro-2-(4-fluorophenyl)butanamide], the results for the IC50 (at CSNK1A1; on CSNK1D; in assay [1] (setting [3])) were 4.3 nM, 2.9 nM and > 20000 nM, respectively.

Take `CC1(C)Cc2[nH]c(-c3ccnc(NC(=O)Cc4ccc(F)cc4)c3)c(-c3ccccc3)c2C(=O)N1` [Example 82, N-[4-(6,6-dimethyl-4-oxo-3-phenyl-4,5,6,7-tetrahydro-1H-pyrrolo[3,2-c]pyridin-2-yl)pyridin-2-yl]-2-(4-fluorophenyl)acetamide]: the IC50 at CSNK1A1 is 1.3 nM; on CSNK1D, 2.4 nM; in assay [1] (setting [2]), > 20000 nM.

For `CN1CCc2[nH]c(-c3ccnc(NC(=O)C(CC(F)F)c4ccc(F)cc4)c3)c(-c3ccc(F)cc3F)c2C1=O` (single isomer, unassigned) [Example 67, N-{4-[3-(2,4-difluorophenyl)-5-methyl-4-oxo-4,5,6,7-tetrahydro-1H-pyrrolo[3,2-c]pyridin-2-yl]pyridin-2-yl}-4,4-difluoro-2-(4-fluorophenyl)butanamide], the IC50 at CSNK1A1 is 16 nM; on CSNK1D, 8.6 nM; in assay [1] (setting [3]), > 20000 nM.

For the compound `CC(C(=O)Nc1cc(-c2[nH]c3ccn(C)c(=O)c3c2-c2cc(F)cc(F)c2)ccn1)c1ccc(F)cc1` (racemic) [Example 121, N-{4-[3-(3,5-difluorophenyl)-5-methyl-4-oxo-4,5-dihydro-1H-pyrrolo[3,2-c]pyridin-2-yl]pyridin-2-yl}-2-(4-fluorophenyl)propanamide], the IC50 on CSNK1A1 was 7 nM; at CSNK1D, 13 nM; in assay [1] (setting [3]), > 5710 nM; in assay [1] (setting [2]), > 5710 nM.
